Results on 16 compounds are retold here after BindingDB's records for patent US12180207 (Array Biopharma, 2024).

Experiment [1] deals with T1, Fibroblast growth factor receptor 1 (Homo sapiens, UniProt P11362). Put plainly: Enzyme Assay. Here is the method: (§1) he potency of compounds inhibiting human isoforms of FGFR kinase was determined using Life Technologies' Homogeneous Time Resolved Fluorescence (HTRF)-based binding assay technology. […] After a 60 minute incubation at 22° C., the extent of tracer displacement was determined using a PerkinElmer EnVision multimode plate reader via HTRF dual wavelength detection, and the percent of control (POC) was calculated using a ratiometric emission factor. One hundred POC was determined using no test compound, and 0 POC was determined in the presence of 1 μM of an appropriate control inhibitor.

Experiment [2] has as its target T2, Fibroblast growth factor receptor 3 (Homo sapiens, UniProt P22607). Put plainly: Enzyme Assay. Here is the method: as §1
Experiment [3] concerns the target T2, Fibroblast growth factor receptor 3. Nature of the experiment: FGFR3 Enzyme Activity Assay. Here is the method:
(§2) FGFR3 kinase activity was measured by the Invitrogen LanthaScreen™ Assay technology which directly measures the amount of substrate phosphorylation by TR-FRET using a fluorescently-labeled peptide and Europium-labeled antibody. […] After a 10 minute incubation at 22° C., an equal volume of 2 nM LanthaScreen Eu-PY20 Antibody (Life Technologies Cat. No. PV5691) and 10 mM EDTA were added to quench the kinase reaction and start the detection reaction. After an additional 60 minute incubation at 22° C., the reaction was measured using a PerkinElmer EnVision multimode plate reader via TR-FRET dual wavelength detection, and the percent of control (POC) calculated using a ratiometric emission factor. 100 POC was determined using no test compounds and 0 POC was determined using no enzyme. The POC values were fit to a 4-parameter logistic curve as a function of the concentration of the compound, and the IC50 value is the point where the curve crosses 50 POC.

The target in experiment [4] is T3, Fibroblast growth factor receptor 2 (Homo sapiens, UniProt P21802). Put plainly: FGFR2 Enzyme Activity Assay. Here is the method:
as §2, with “FGFR2 kinase” for “FGFR3 kinase”, “a 20” for “a 10”

Experiment [5] has as its target T1, Fibroblast growth factor receptor 1. Nature of the experiment: FGFR1 Enzyme Activity Assay. Here is the method:
as §2, with “FGFR1 kinase” for “FGFR3 kinase”, “by Time-resolved fluorescence energy transfer (TR-FRET)” for “by TR-FRET”, “a 20 minutes” for “a 10 minute”, “EDTA was” for “EDTA were”

Experiment [6] addresses T3, Fibroblast growth factor receptor 2. Nature of the experiment: Enzyme Assay. Here is the method: as §1

T2 sequence (P22607 whole entry): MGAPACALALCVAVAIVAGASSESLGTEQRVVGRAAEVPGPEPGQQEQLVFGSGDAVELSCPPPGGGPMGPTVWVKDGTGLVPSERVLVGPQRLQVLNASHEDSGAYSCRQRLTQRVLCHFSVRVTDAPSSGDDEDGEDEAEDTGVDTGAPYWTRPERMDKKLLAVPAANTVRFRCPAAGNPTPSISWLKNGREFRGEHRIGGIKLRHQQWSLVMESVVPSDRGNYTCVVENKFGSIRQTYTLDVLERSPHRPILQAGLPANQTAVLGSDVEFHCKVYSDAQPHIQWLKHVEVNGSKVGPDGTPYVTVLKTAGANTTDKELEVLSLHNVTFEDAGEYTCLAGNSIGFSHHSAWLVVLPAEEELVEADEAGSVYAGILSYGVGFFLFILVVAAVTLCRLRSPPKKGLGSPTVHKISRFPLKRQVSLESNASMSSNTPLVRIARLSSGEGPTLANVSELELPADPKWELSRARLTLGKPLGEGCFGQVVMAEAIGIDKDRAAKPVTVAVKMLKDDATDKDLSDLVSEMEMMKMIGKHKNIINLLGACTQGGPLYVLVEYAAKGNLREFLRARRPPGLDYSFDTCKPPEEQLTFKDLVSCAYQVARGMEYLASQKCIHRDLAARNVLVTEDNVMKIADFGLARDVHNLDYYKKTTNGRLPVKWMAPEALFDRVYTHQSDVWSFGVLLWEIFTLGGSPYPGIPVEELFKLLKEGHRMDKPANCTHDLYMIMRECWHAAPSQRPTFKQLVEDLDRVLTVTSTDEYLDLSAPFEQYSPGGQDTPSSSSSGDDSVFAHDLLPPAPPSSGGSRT
T1 sequence (P11362 whole entry, canonical isoform): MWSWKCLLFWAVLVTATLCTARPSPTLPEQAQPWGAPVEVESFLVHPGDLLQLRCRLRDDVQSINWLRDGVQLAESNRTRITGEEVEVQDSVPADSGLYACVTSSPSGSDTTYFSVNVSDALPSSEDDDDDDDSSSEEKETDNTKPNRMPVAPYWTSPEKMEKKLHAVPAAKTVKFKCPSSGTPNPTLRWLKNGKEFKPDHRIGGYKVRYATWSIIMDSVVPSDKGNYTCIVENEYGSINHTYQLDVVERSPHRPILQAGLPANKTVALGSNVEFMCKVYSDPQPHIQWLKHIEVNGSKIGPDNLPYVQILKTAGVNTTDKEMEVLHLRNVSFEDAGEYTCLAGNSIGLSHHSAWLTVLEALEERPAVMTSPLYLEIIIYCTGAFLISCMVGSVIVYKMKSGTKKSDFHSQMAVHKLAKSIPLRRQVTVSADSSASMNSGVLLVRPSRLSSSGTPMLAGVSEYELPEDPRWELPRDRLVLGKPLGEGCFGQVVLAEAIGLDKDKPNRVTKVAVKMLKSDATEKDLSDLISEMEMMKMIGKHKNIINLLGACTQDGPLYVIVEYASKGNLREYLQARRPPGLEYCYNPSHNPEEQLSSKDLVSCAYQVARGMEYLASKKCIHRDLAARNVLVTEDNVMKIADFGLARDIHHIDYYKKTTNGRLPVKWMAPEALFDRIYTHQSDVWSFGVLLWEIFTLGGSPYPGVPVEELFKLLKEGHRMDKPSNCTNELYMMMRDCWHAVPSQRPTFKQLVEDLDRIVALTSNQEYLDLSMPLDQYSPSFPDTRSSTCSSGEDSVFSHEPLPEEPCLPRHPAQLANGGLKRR
T3 sequence (P21802 whole entry): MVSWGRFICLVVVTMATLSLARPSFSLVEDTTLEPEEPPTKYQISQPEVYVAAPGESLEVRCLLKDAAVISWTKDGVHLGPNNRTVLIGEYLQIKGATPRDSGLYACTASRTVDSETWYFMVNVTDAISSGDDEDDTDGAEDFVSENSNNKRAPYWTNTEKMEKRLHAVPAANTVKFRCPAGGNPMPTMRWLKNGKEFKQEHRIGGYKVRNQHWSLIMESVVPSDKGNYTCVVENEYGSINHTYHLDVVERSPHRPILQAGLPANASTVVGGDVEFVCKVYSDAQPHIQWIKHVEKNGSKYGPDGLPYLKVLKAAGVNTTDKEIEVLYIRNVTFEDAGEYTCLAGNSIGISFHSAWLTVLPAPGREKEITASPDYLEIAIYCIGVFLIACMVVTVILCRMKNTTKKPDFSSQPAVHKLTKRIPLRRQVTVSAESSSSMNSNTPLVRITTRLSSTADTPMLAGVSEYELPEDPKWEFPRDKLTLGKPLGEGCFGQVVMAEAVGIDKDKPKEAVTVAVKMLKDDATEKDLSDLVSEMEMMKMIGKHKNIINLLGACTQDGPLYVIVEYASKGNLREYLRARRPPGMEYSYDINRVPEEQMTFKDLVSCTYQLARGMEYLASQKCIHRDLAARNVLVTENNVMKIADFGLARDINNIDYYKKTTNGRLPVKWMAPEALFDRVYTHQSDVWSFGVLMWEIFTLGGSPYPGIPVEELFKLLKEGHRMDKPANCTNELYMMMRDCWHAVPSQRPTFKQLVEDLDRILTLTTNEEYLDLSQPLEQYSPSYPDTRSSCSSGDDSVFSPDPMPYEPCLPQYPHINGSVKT

Regarding `C=CC(=O)N[C@H]1CCC[C@@H](C(=O)N2CCC(n3cc(-c4cc(OC)c5c(C#N)cnn5c4)cn3)CC2)C1` [US12180207, Example 19], the IC50 in experiment [1] amounted to 56 nM; in experiment [2], 11 nM; in experiment [3], 7 nM; in experiment [4] it was 8 nM; in experiment [5], 20 nM.

Regarding `C=CC(=O)N[C@@H]1CC[C@H](C(=O)N2CCC(n3cc(-c4cc(OC)c5c(C#N)cnn5c4)cn3)CC2)C1` [US12180207, Example 32], the IC50 in experiment [1] was 113 nM; in experiment [2] it was 31 nM; in experiment [3] it was 3 nM; in experiment [4] it was 4 nM; in experiment [5], 13 nM.

`C=CC(=O)N[C@H]1CC[C@@H](C(=O)N2CCC(n3cc(-c4cc(OC)c5c(C#N)cnn5c4)cn3)CC2)C1` [US12180207, Example 33]: the IC50 in experiment [1] was 20 nM; in experiment [2], 3 nM; in experiment [3], 1 nM; in experiment [4], 4 nM.

Regarding `C=CC(=O)N[C@@H]1CC[C@@H](C(=O)N2CCC(n3cc(-c4cc(OC)c5c(C#N)cnn5c4)cn3)CC2)C1` [US12180207, Example 34], the IC50 was 231 nM in experiment [1]; 36 nM in experiment [2]; 2 nM in experiment [3]; 5 nM in experiment [4]; 19 nM in experiment [5].

In the case of `C=CC(=O)N[C@H]1CC[C@H](C(=O)N2CCC(n3cc(-c4cc(OC)c5c(C#N)cnn5c4)cn3)CC2)C1` [US12180207, Example 35], the IC50 turned out to be 119 nM in experiment [1]; 23 nM in experiment [2]; 3 nM in experiment [3]; 5 nM in experiment [4]; 19 nM in experiment [5].

Regarding `C=CC(=O)Nc1ccc(S(=O)(=O)N2CCC(n3cc(-c4cc(OC)c5c(C#N)cnn5c4)cn3)CC2)cc1` [US12180207, Example 49], the IC50 came out at 113 nM in experiment [1], 13 nM in experiment [2], 5 nM in experiment [3] and 43 nM in experiment [5].

`C=CC(=O)N[C@H]1CC[C@H](C(=O)N2CC(n3cc(-c4cc(OC)c5c(C#N)cnn5c4)cn3)C2)C1` [US12180207, Example 77]: the IC50 is 393 nM in experiment [1]; 118 nM in experiment [2]; 11 nM in experiment [3]; 12 nM in experiment [4]; 35 nM in experiment [5].

Consider `C=C(F)C(=O)N1CC(C(=O)N2CCC(n3cc(-c4cc(OC)c5c(C#N)cnn5c4)cn3)CC2)C1` [US12180207, Example 140], for which the IC50 in experiment [6] stood at 19 nM; in experiment [1], 37 nM; in experiment [2], 7 nM; in experiment [3] it was 4 nM; in experiment [4], 2 nM; in experiment [5] it was 21 nM.

Turning to `COc1cc(-c2cnn(C3CCN(C(=O)C4CN(C(=O)/C=C/CF)C4)CC3)c2)cn2ncc(C#N)c12` [US12180207, Example 142], the IC50 in experiment [6] came out at 16 nM; in experiment [1] it was 36 nM; in experiment [2] it was 5 nM; in experiment [4], 3 nM; in experiment [5], 20 nM.

`COc1cc(-c2cnn(C3CCN(C(=O)/C=C/CN(C)C)CC3)c2)cn2ncc(C#N)c12` [US12180207, Example 144]: the IC50 in experiment [1] amounted to 276 nM; in experiment [2], 24 nM; in experiment [3], 4 nM; in experiment [4], 5 nM; in experiment [5], 11 nM.

In the case of `COc1cc(-c2cnn(C3CN(CC4CN(C(=O)/C=C/CN(C)C)C4)C3)c2)cn2ncc(C#N)c12` [US12180207, Example 148], the IC50 in experiment [1] worked out at 217 nM; in experiment [2], 14 nM; in experiment [3], 4 nM; in experiment [4], 6 nM; in experiment [5] it was 47 nM.

For the compound `COc1cc(-c2cnn(C3CN(C(=O)C4CN(C(=O)/C=C/CN(C)C)C4)C3)c2)cn2ncc(C#N)c12` [US12180207, Example 150], the IC50 in experiment [1] was 229 nM; in experiment [2], 22 nM; in experiment [3] it was 7 nM; in experiment [4], 6 nM; in experiment [5] it was 8 nM.

Consider `C=CS(=O)(=O)N[C@H]1CC[C@H](C(=O)N2CCC(n3cc(-c4cc(OC)c5c(C#N)cnn5c4)cn3)CC2)CC1` [US12180207, Example 187], for which the IC50 in experiment [1] was 31 nM; in experiment [2] it was 4 nM; in experiment [4], 5 nM; in experiment [5], 17 nM.

For `C=CS(=O)(=O)N[C@H]1C[C@@H](C(=O)N2CCC(n3cc(-c4cc(OC)c5c(C#N)cnn5c4)cn3)CC2)C1` [US12180207, Example 193], the IC50 in experiment [1] was 36 nM; in experiment [5], 7 nM.

As to `C=CS(=O)(=O)N[C@H]1C[C@H](C(=O)N2CCC(n3cc(-c4cc(OC)c5c(C#N)cnn5c4)cn3)CC2)C1` [US12180207, Example 194], the values for the IC50 in experiment [1] and in experiment [5] were 93 nM and 13 nM, respectively.

Regarding `C=CS(=O)(=O)Nc1ccc(C(=O)N2CCC(n3cc(-c4cc(OC)c5c(C#N)cnn5c4)cn3)CC2)cc1` [US12180207, Example 196], the IC50 is 31 nM in experiment [1]; 3 nM in experiment [2]; 2 nM in experiment [3]; 8 nM in experiment [4]; 10 nM in experiment [5].
